Results published in PubChem BioAssay AID1918939 (Molecular Pharmacology Branch, DTP, NCI, 2023).
“And” between values parts separate entries of the source, which are not always exact repeats. Equal entries are not always repeated.

System: 653999-131-R-J2-PDC complex spheroid viability
Test: Anticancer human tumor 653999-131-R-J2-PDC patient-derived lung adenocarcinoma cell line growth inhibition
Details: for viability, T/C: stronger effect = lower value
Outline: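 Multicellular complex spheroids of tumor cells with human endothelial cells (HUVEC) and mesenchymal stem cells; the LSD1 inhibitor iadademstat was combined with standard-of-care or investigational agents. Top concentration at or near clinical Cmax, half-log dilutions; final DMSO ≤0.25%.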

[1] = curve of first compound, second compound 0.1 µM
[2] = curve of first compound, second compound 0.316 µM
[3] = curve of first compound, second compound 1 µM
[4] = curve of first compound, second compound 3.16 µM
[5] = curve of first compound, second compound 10 µM
[6] = second compound 0.1 µM, first compound 0.0316 µM
[7] = second compound 0.1 µM, first compound 0.1 µM
[8] = second compound 0.1 µM, first compound 0.316 µM
[9] = second compound 0.1 µM, first compound 1 µM
[10] = second compound 0.1 µM, first compound 3.16 µM
[11] = second compound 0.1 µM, first compound 10 µM
[12] = second compound 0.316 µM, first compound 0.0316 µM
[13] = second compound 0.316 µM, first compound 0.1 µM
[14] = second compound 0.316 µM, first compound 0.316 µM
[15] = second compound 0.316 µM, first compound 1 µM
[16] = second compound 0.316 µM, first compound 3.16 µM
[17] = second compound 0.316 µM, first compound 10 µM
[18] = second compound 1 µM, first compound 0.0316 µM
[19] = second compound 1 µM, first compound 0.1 µM
[20] = second compound 1 µM, first compound 0.316 µM
[21] = second compound 1 µM, first compound 1 µM
[22] = second compound 1 µM, first compound 3.16 µM
[23] = second compound 1 µM, first compound 10 µM
[24] = second compound 3.16 µM, first compound 0.0316 µM
[25] = second compound 3.16 µM, first compound 0.1 µM
[26] = second compound 3.16 µM, first compound 0.316 µM
[27] = second compound 3.16 µM, first compound 1 µM
[28] = second compound 3.16 µM, first compound 3.16 µM
[29] = second compound 3.16 µM, first compound 10 µM
[30] = second compound 10 µM, first compound 0.0316 µM
[31] = second compound 10 µM, first compound 0.1 µM
[32] = second compound 10 µM, first compound 0.316 µM
[33] = second compound 10 µM, first compound 1 µM
[34] = second compound 10 µM, first compound 3.16 µM
[35] = second compound 10 µM, first compound 10 µM
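Further: spheroids exposed to agents for seven days before readout.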

O=C(c1cc(Cc2n[nH]c(=O)c3ccccc23)ccc1F)N1CCN(C(=O)C2CC2)CC1 + NC1CCC(NC2CC2c2ccccc2)CC1
IC50 [1]: > 10000 nM | IC50 [2]: > 10000 nM | IC50 [3]: > 10000 nM | IC50 [4]: > 10000 nM | IC50 [5]: > 10000 nM | viability, T/C [6]: 86.2% | viability, T/C [7]: 94.2% | viability, T/C [8]: 80.7% | viability, T/C [9]: 87.7% | viability, T/C [10]: 81.6% | viability, T/C [11]: 57.6% | viability, T/C [12]: 99.5% | viability, T/C [13]: 93.6% | viability, T/C [14]: 98.3% | viability, T/C [15]: 84.6% | viability, T/C [16]: 70.1% | viability, T/C [17]: 53% | viability, T/C [18]: 103% | viability, T/C [19]: 92.5% | viability, T/C [20]: 109% | viability, T/C [21]: 81% | viability, T/C [22]: 71.5% | viability, T/C [23]: 56.9% | viability, T/C [24]: 91.3% | viability, T/C [25]: 104% | viability, T/C [26]: 84.8% | viability, T/C [27]: 84.7% | viability, T/C [28]: 85.1% | viability, T/C [29]: 58.5% | viability, T/C [30]: 113% | viability, T/C [31]: 93.9% | viability, T/C [32]: 102% | viability, T/C [33]: 92.2% | viability, T/C [34]: 76.4% | viability, T/C [35]: 60%

NC1CCC(NC2CC2c2ccccc2)CC1 (stereo not given)
viability, T/C (compound 0.316 µM): 85.8% and 90% | viability, T/C (compound 1 µM): 86.8% [middle of 25 runs] | IC50 (compound alone, run of 01/18/2022): > 10000 nM

CC(C)CC(NC(=O)C(Cc1ccccc1)NC(=O)c1cnccn1)B(O)O (stereo not given) + NC1CCC(NC2CC2c2ccccc2)CC1
IC50 [1]: 2.28 nM | IC50 [2]: 2.47 nM | IC50 [3]: 2.96 nM | IC50 [4]: 2.31 nM | IC50 [5]: 2.2 nM | viability, T/C (second compound 0.1 µM, first compound 0.000316 µM): 108% | viability, T/C (second compound 0.1 µM, first compound 0.001 µM): 107% | viability, T/C (second compound 0.1 µM, first compound 0.00316 µM): 27.5% | viability, T/C (second compound 0.1 µM, first compound 0.01 µM): 3.82% | viability, T/C [6]: 2.01% | viability, T/C [7]: 1.51% | viability, T/C (second compound 0.316 µM, first compound 0.000316 µM): 123% | viability, T/C (second compound 0.316 µM, first compound 0.001 µM): 124% | viability, T/C (second compound 0.316 µM, first compound 0.00316 µM): 30.1% | viability, T/C (second compound 0.316 µM, first compound 0.01 µM): 5.95% | viability, T/C [12]: 0.76% | viability, T/C [13]: 1.38% | viability, T/C (second compound 1 µM, first compound 0.000316 µM): 115% | viability, T/C (second compound 1 µM, first compound 0.001 µM): 115% | viability, T/C (second compound 1 µM, first compound 0.00316 µM): 46.1% | viability, T/C (second compound 1 µM, first compound 0.01 µM): 4.39% | viability, T/C [18]: 1.9% | viability, T/C [19]: 1.12% | viability, T/C (second compound 3.16 µM, first compound 0.000316 µM): 97.6% | viability, T/C (second compound 3.16 µM, first compound 0.001 µM): 123% | viability, T/C (second compound 3.16 µM, first compound 0.00316 µM): 27.4% | viability, T/C (second compound 3.16 µM, first compound 0.01 µM): 3.37% | viability, T/C [24]: 1.02% | viability, T/C [25]: 2.22% | viability, T/C (second compound 10 µM, first compound 0.000316 µM): 117% | viability, T/C (second compound 10 µM, first compound 0.001 µM): 119% | viability, T/C (second compound 10 µM, first compound 0.00316 µM): 18.5% | viability, T/C (second compound 10 µM, first compound 0.01 µM): 2.92% | viability, T/C [30]: 1.36% | viability, T/C [31]: 0.56%

COc1ccc([C@@H](O)c2cc(-c3ncnc4cc(N5CCOCC5)ccc34)c(F)cc2Cl)nn1
viability, T/C (compound 0.0316 µM): 101% and 104% | viability, T/C (compound 0.1 µM): 93.2% and 96.7% | viability, T/C (compound 0.316 µM): 77.3% and 87.9% | viability, T/C (compound 1 µM): 61.9% and 64.3% | viability, T/C (compound 3.16 µM): 44.9% and 50.9% | viability, T/C (compound 10 µM): 29.5% and 30.6% | IC50 (curve of compound): 2190 nM and 2880 nM

CC(C)c1c(-c2ccccc2)nc2c(C#N)c[nH]n2c1=O + NC1CCC(NC2CC2c2ccccc2)CC1
IC50 [1]: > 10000 nM | IC50 [2]: > 10000 nM | IC50 [3]: > 10000 nM | IC50 [4]: > 10000 nM | IC50 [5]: > 10000 nM | viability, T/C [6]: 92.5% | viability, T/C [7]: 97.8% | viability, T/C [8]: 91.4% | viability, T/C [9]: 80.6% | viability, T/C [10]: 91.8% | viability, T/C [11]: 91.5% | viability, T/C [12]: 94.5% | viability, T/C [13]: 89.6% | viability, T/C [14]: 100% | viability, T/C [15]: 82.3% | viability, T/C [16]: 85.5% | viability, T/C [17]: 77.5% | viability, T/C [18]: 94.2% | viability, T/C [19]: 105% | viability, T/C [20]: 92.8% | viability, T/C [21]: 84.9% | viability, T/C [22]: 87.2% | viability, T/C [23]: 85.1% | viability, T/C [24]: 85.9% | viability, T/C [25]: 103% | viability, T/C [26]: 84.6% | viability, T/C [27]: 95.1% | viability, T/C [28]: 89% | viability, T/C [29]: 80% | viability, T/C [30]: 91.9% | viability, T/C [31]: 88.1% | viability, T/C [32]: 82.6% | viability, T/C [33]: 78.1% | viability, T/C [34]: 75.5% | viability, T/C [35]: 69.4%

Nc1ccn(C2OC(CO)C(O)C2(F)F)c(=O)n1 (stereo not given) + NC1CC1c1ccc(-c2cccc(O)c2)cc1
IC50 [1]: 133 nM | IC50 [2]: 37.9 nM | IC50 [3]: 24.9 nM | IC50 [4]: 68.3 nM | IC50 [5]: > 300 nM | viability, T/C (second compound 0.1 µM, first compound 0.000949 µM): 105% | viability, T/C (second compound 0.1 µM, first compound 0.003 µM): 92.4% | viability, T/C (second compound 0.1 µM, first compound 0.00949 µM): 67.2% | viability, T/C (second compound 0.1 µM, first compound 0.03 µM): 61.3% | viability, T/C (second compound 0.1 µM, first compound 0.0949 µM): 43.6% | viability, T/C (second compound 0.1 µM, first compound 0.3 µM): 52.2% | viability, T/C (second compound 0.316 µM, first compound 0.000949 µM): 82.1% | viability, T/C (second compound 0.316 µM, first compound 0.003 µM): 77.2% | viability, T/C (second compound 0.316 µM, first compound 0.00949 µM): 75.6% | viability, T/C (second compound 0.316 µM, first compound 0.03 µM): 51.2% | viability, T/C (second compound 0.316 µM, first compound 0.0949 µM): 43.5% | viability, T/C (second compound 0.316 µM, first compound 0.3 µM): 47% | viability, T/C (second compound 1 µM, first compound 0.000949 µM): 75.1% | viability, T/C (second compound 1 µM, first compound 0.003 µM): 80.9% | viability, T/C (second compound 1 µM, first compound 0.00949 µM): 64.7% | viability, T/C (second compound 1 µM, first compound 0.03 µM): 48.6% | viability, T/C (second compound 1 µM, first compound 0.0949 µM): 45.2% | viability, T/C (second compound 1 µM, first compound 0.3 µM): 44.9% | viability, T/C (second compound 3.16 µM, first compound 0.000949 µM): 83.4% | viability, T/C (second compound 3.16 µM, first compound 0.003 µM): 74.1% | viability, T/C (second compound 3.16 µM, first compound 0.00949 µM): 63.4% | viability, T/C (second compound 3.16 µM, first compound 0.03 µM): 57.4% | viability, T/C (second compound 3.16 µM, first compound 0.0949 µM): 47.3% | viability, T/C (second compound 3.16 µM, first compound 0.3 µM): 39.7% | viability, T/C (second compound 10 µM, first compound 0.000949 µM): 76% | viability, T/C (second compound 10 µM, first compound 0.003 µM): 70.8% | viability, T/C (second compound 10 µM, first compound 0.00949 µM): 68.9% | viability, T/C (second compound 10 µM, first compound 0.03 µM): 53.1% | viability, T/C (second compound 10 µM, first compound 0.0949 µM): 55.4% | viability, T/C (second compound 10 µM, first compound 0.3 µM): 51.5%

O=C(c1cc(Cc2n[nH]c(=O)c3ccccc23)ccc1F)N1CCN(C(=O)C2CC2)CC1 + NC1CC1c1ccc(-c2cccc(O)c2)cc1
IC50 [1]: > 10000 nM | IC50 [2]: > 10000 nM | IC50 [3]: > 10000 nM | IC50 [4]: > 10000 nM | IC50 [5]: > 10000 nM | viability, T/C [6]: 102% | viability, T/C [7]: 106% | viability, T/C [8]: 95.1% | viability, T/C [9]: 89.1% | viability, T/C [10]: 76.5% | viability, T/C [11]: 66.1% | viability, T/C [12]: 93.8% | viability, T/C [13]: 90.7% | viability, T/C [14]: 82.6% | viability, T/C [15]: 72% | viability, T/C [16]: 59.9% | viability, T/C [17]: 65.4% | viability, T/C [18]: 86.1% | viability, T/C [19]: 80.4% | viability, T/C [20]: 90.8% | viability, T/C [21]: 64.3% | viability, T/C [22]: 75.3% | viability, T/C [23]: 63.5% | viability, T/C [24]: 78.5% | viability, T/C [25]: 87.2% | viability, T/C [26]: 87% | viability, T/C [27]: 82.5% | viability, T/C [28]: 71.4% | viability, T/C [29]: 64.6% | viability, T/C [30]: 92.8% | viability, T/C [31]: 79.7% | viability, T/C [32]: 87.9% | viability, T/C [33]: 78.3% | viability, T/C [34]: 71.7% | viability, T/C [35]: 58.5%
